Drawing on patent US7468370B2, “[1,7]naphthyridines as PDE4 inhibitors” (Novartis AG, priority 2002, dated 2008), this text covers melting point and IC50 for six molecules.

Where a name gives a salt, the structure may show the parent alone.

One data set deals with T1, human PDE4D (Homo sapiens, UniProt Q08499).
T1 construct: PDE4 cDNA constructs containing the coding regions of the three isoenzymes; made in house; host or cells: Sf21 (Spodoptera frugiperda) insect cells, baculovirus (Bac-To-Bac)
T1 sequence (Q08499 1-673 isoform Q08499-2): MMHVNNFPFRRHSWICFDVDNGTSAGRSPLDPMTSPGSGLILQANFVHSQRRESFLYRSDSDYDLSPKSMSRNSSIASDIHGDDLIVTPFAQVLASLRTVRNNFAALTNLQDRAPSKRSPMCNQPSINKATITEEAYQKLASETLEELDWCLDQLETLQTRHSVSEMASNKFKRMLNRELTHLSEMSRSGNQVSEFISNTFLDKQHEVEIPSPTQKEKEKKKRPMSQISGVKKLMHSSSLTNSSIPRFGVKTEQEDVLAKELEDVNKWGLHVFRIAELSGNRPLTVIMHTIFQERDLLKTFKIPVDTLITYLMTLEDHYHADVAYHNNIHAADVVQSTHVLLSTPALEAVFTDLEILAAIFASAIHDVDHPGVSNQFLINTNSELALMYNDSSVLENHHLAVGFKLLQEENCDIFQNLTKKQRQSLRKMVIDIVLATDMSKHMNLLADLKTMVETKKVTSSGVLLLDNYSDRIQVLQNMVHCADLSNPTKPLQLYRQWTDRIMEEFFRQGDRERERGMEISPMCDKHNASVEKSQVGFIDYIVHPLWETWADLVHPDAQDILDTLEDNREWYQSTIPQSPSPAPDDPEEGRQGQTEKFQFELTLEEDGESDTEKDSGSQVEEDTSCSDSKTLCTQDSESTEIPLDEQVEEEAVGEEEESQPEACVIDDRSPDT
The data set can be described thus: PDE4 Isoenzyme Inhibition Assay (Scintillation Proximity Assay, [3H]-cAMP). Type of data set: biochemical. As to conditions: recombinant 6His-tagged human PDE4D3 expressed in Sf21 cells; 1 μM cAMP; 1% DMSO; room temperature. (Scintillation proximity formats need no separation of bound from free tracer.)

Experimental for human PDE4D: PDE4 Expression: Sf21 cells are grown to a density of 2×10^6 cells/ml and infected with human PDE4A, PDE4B or PDE4D3 containing baculovirus to a multiplicity of infection (m.o.i.) of 1 for 72 hours. The infected cells are harvested by centrifugation at 1,400 g for 4 minutes at 4° C. and the cell pellets are frozen at −80° C. Sf21 (Spodoptera frugiperda 21) insect cells are routinely maintained at densities between 3×105 and 3×10^6 cells/ml in SF00 Serum Free Medium (Invitorgen Life Technologies). Sf21 cells (1×109) are resuspended in 100 ml cold (4° C.) Lysis Buffer (50 mM Na2HP04, 200 mM NaCl, 10 mM Imidazole). Cells are incubated on ice for 30 minutes then centrifuged at 15,000 g for 20 minutes at 4° C.
PDE4 Purification: The 6 Histidine-tagged PDE4 proteins are isolated from crude cell lysates by a batch-wise Ni-NTA purification strategy (QIAGEN). N-NTA resin is first pre-rinsed to remove ethanol preservative and equilibrated with Lysis Buffer. Cell lysate is added, (10 ml 50% Ni-NTA slurry resin per 50 ml lysate), and gently rotated on a mixer at 4° C. for 1-2 h. The sample is then centrifuged at 1,000 g for 5 minutes at 4° C. using Denley benchtop centrifuge. The supernatant is removed and the resin is washed 3 times with 50 ml ice cold Wash Buffer (50 mM Na2HP04, 300 mM NaCl and 20 mM imidazole) followed by centrifugation at 1,000 g for 5 minutes at 4° C. The 6His-tagged protein is eluted from the resin with 3×5 ml ice cold Elution Buffer (50 mM NaH2PO4, 300 mM NaCl, 250 mM imidazole) and collected by centrifugation at 1,000 g for 5 minutes at 4° C. The supernatants are then pooled before buffer exchange and concentration using a VivaScience 20 ml 5K 0.2 μM Concentrator. Samples are aliquoted and stored at −20° C.
PDE4 Assay: The assay is based on Amersham Pharmacia Biotech Scintillation Proximity Assay (SPA) technology. Enzyme is diluted with enzyme dilution buffer (10 mM Tris-HCl, pH 7.5 containing 1 mM EDTA) in order to obtain between 10-30% total substrate hydrolysis during the assay. The enzymatic reaction is started by adding 10 μl diluted enzyme to 80 μl substrate (0.1 μCi [3H]-cAMP, 1 μM cAMP) and 10 μl inhibitor solution in a 96-well microtiter plate. After 30-60 minutes incubation at room temperature the reaction is stopped by adding 50 μl PDE SPA beads (20 mg/ml). After 30 minutes the plate is centrifuged (3000 g, 10 minutes) and counted (Packard TopCount).
The concentration of DMSO is kept constant at 1% (v/v) throughout the assay. The concentration at which 50% inhibition occurs (IC50) is determined from inhibition—concentration curves in a conventional manner.

In general, melting point refers to the temperature, or range, at which the solid turns liquid. As to `N#Cc1cccc(-c2nc(N3CCNCC3)cc3cccnc23)c1` (as salt: hydrochloride) [Example 4, 3-(6-Piperazin-1-yl-[1,7]naphthyridin-8-yl)-benzonitrile], the melting point is more than 250 °C. In general, IC50 refers to the midpoint of a concentration-inhibition curve. `N#Cc1cccc(-c2nc(N3CCC(O)C3)cc3cccnc23)c1` (centres unmarked) [Example 1, 3-[6-(3-Hydroxy-pyrrolidin-1-yl)-[1,7]naphthyridin-8-yl]-benzonitrile]: the melting point was 132 to 133 °C. Besides, on human PDE4D, the 50% inhibitory concentration (IC50) is 1 nM. Take `N#Cc1cccc(-c2nc(N3CCC(C(=O)[O-])CC3)cc3cccnc23)c1.[Li+]` [Example 3, 1-[8-(3-Cyano-phenyl)-[1,7]naphthyridin-6-yl]-piperidine-4-carboxylic acid, Lithium salt]: the melting point was more than 200 °C. Moreover, the 50% inhibitory concentration (IC50) at human PDE4D turned out to be 3.1 nM. As to `N#Cc1cccc(-c2nc(N3CCOCC3)cc3cccnc23)c1` [Example 12], the IC50 at human PDE4D stood at 2.5 nM.

On to `CN1CCN(c2cc3cccnc3c(-c3cccc(C#N)c3)n2)CC1` [Example 15], for which, at human PDE4D, the 50% inhibitory concentration (IC50) was 10.4 nM.

Turning to `O=C(O)C1CCN(c2cc3cccnc3c(-c3ccc(F)c(Cl)c3)n2)CC1` [Example 39], the IC50 at human PDE4D stood at 8 nM.
